Consider one compound from patent publication US20160312311A1, “MARKERS FOR ISOCITRATE DEHYDROGENASE INHIBITORS” (NOVARTIS AG, priority 2013, published 2016).

Common to all, as to assay type: cell-based
For assay [1], the system named is IDH1-R132C mutant HT1080 sarcoma cells. Kind of assay: H3K9me2 immunohistochemistry with quantitative image analysis. Conditions: 5 μM, 6 days. How it is done:
In order to determine if changes in H3K9me2 level could be detected via immunohistochemistry, HT1080 cell lines were plated onto […] tissue culture flasks (Corning, Cat #3001, Tewksbury, Mass.). The cells were treated with DMSO or 5 μM compound 162 and incubated for 6 days, with media change at day 3. HT1080 cell pellets were harvested by removing media, washing with 1×PBS, and adding 10 ml of 10% neutral buffer formalin. Cells were then scraped from the bottom of the flask and placed in a 50 ml conical tube, filled to ˜50 ml with 10% neutral buffered formalin, and allowed to fix for 1-2 hours. […]
FFPE slides were cut at 3.5 μm thickness, mounted on charged slides (Thermo-Scientific Colormark® Plus Cat #CM-5951, West Palm Beach, Fla.) and baked at 60° C. for 1 hour. […] The secondary antibody, Ventana OmniMap® HRP-conjugated anti-mouse (Ventana Cat #760-4310 Tucson, Ariz.), was incubated for 4 minutes and detected with Ventana's ChromoMap® DAB detection kit (Ventana Cat #760-159, Tucson, Ariz.). […]
Coverslipped slides were scanned with Aperio ScanScope ® XT (Vista, Calif.) for quantitative digital image analysis. Digital images were analyzed with Visiopharm® (Hoersholm, Denmark) image analysis software. The nuclear detection algorithm detected both hematoxylin and DAB-stained nuclei in the image. […]

Assay [2] deals with HCT116 cells (wild type for IDH1 and IDH2). Kind of assay: H3K9me2 Western blot in IDH1 and IDH2 wild type cell line. To be noted: increasing concentrations, 3-6 days. How it is done: In order to examine the role of H3K9me2 levels as marker, cells that were wild type for IDH1 and IDH2, for example HCT116 cells, were treated with a compound that inhibits IDH1 mutant activity (compound 162). HCT116 colon cells cancer cells (ATCC CCL-247) were cultured in McCoy's 5A (Life Technologies, Carlsbad, Calif.) supplemented with 10% fetal bovine serum (Hyclone, Logan Utah). These cells were treated for 3-6 days with increasing concentrations of compound 162 or DMSO vehicle as control.
Histone extracts were prepared with NuPAGE® 4×LDS Sample Buffer (Life Technologies, Carlsbad, Calif.) and heated to 70° C. for 10 minutes. Samples were run on NuPage® Novex 4-12% Bis-Tris gel (Life Technologies, Carlsbad, Calif.) using MES buffer (Life Technologies, Carlsbad, Calif.). The gel was then transferred onto nitrocellulose membrane using the iBlot system (Life Technologies, Carlsbad Calif.) on setting P3 for 7 minutes. The antibodies used are shown above in Table 1.
A general note: In western blotting, separated proteins are transferred to a membrane and probed.

Assay [3] has as its system HT1080 and SNU1079 cells. Kind of assay: Histone profiling by LC-MS/MS, compound 162 vs. DMSO. To be noted: 3 μM, 6 days. The protocol: Also profiled were three endogenously mutant cell lines upon modulation of the target by chemical or genetic means in order to evaluate other lysine methylation marks. We used histone acid extracts (as described in Example 1) from HT1080 and SNU1079 cells treated with 3 μM compound 162 or DMSO control for 6 days, as well as SW1353 cells that have been induced (100 ng/mL doxycycline) with IDH2 specific shRNA (shIDH2-891 or shNTC) for 6 days. Histones were further enriched with ActiveMotif® Histone purification mini kit (ActiveMotif Inc., Carlsbad, Calif.)
The purified histones were desalted by off line reversed phase chromatography on an 1200 Agilent tower (Agilent, Santa Clara, Calif.) using a Jupiter® 5 μm C4 300 Å Column 150×2 mm (Phenomenex, Torrance, Calif.). The resulting peak area was used to estimate concentration against the peak area of histones of known concentration. The desalted histones were lyophilyzed prior to lysine derivatization. […]
The data obtained via mass spectrometry was interpreted using Mascot Distiller® (Matrix Science, Boston, Mass.) for identification followed by manual verification. The peak area obtained from the data acquired was processed using Skyline Software® (v1.4.0.422 University of Washington, Seattle, Wash.) for quantitation of the peptides bearing post translational modifications.

The subject of assay [4] is SNU1079 cholangiocarcinoma cells (IDH1-R132C/WT), IDH2-R172K background. Kind of assay: H3K9me2 Western blot in SNU1079 expressing IDH2-R172K. Conditions: doxycycline-induced IDH2-R172K, day 6. How it is done:
(§1) As disclosed in Example 4, compound 162 is specific for IDH1 mutations. As such, it is a useful compound to determine the contribution of IDH2 to H3K9me2 methylation levels. SNU1079 cholangiocarcinoma cells (KCLB) contain an IDH1 mutation (IDH1-R132C/WT). These cells were cultured in RPMI-1640 (Life Technologies, Carlsbad, Calif.) supplemented with 1% Sodium Pyruvate and 10% Tet-free fetal bovine serum (Hyclone, Logan Utah). Full length IDH2 cDNAs (WT or R172K) were cloned into pLKO-TREX-neomycin for lentiviral transduction (Wee et al., Proc. Nat. Acad. Sci. U.S.A. 2008 105(35):13057-13062). Lentiviral particles were produced by co-transfecting the cDNA expression vector of interest with packaging plasmids Δ8.9 and VSVG into 293T cells (ATCC CRL-11268) using Transit293® transfection reagent (Mirus, Madison, Wis.). Lentiviral supernatants were then used to spin-infect SNU1079 cells in the presence of 8 μg/mL polybrene. Cells recovered overnight in fresh medium and were then selected and continually cultured in appropriate antibiotics.
(§2) SNU1079 stably expressing IDH2 isoforms were co-treated with doxycycline (100 ng/mL) final concentration to induce IDH2 (WT or R172K) expression. These lines were treated with DMSO or doses of compound 162. Cells were harvested on day 6 post-treatment and processed for histones as described above. […]

Assay [5] concerns SNU1079 cholangiocarcinoma cells (IDH1-R132C/WT), IDH2-WT background. Kind of assay: H3K9me2 Western blot in SNU1079 expressing IDH2 WT. Conditions: doxycycline-induced IDH2 WT, day 6. How it is done:
as §1, §2

Turning to `CC(C)[C@H]1COC(=O)N1c1ccnc(N[C@@H](C)c2ccc(Oc3ccccc3)cc2)n1` [compound 162, (S)-4-isopropyl-3-(2-(((S)-1-(4 phenoxyphenyl)ethyl)amino)pyrimidin-4-yl)oxazolidin-2-one], in assay [1], the “H3K9me2 levels by immunohistochemistry (FIG. 6A)” value was “decreases levels H3K9me2”. Further, in assay [1] (entire cross section, vs DMSO), the “decrease in H3K9me2 levels, quantitative image analysis (FIG. 6B)” value worked out at 27%. For the same compound, the “H3K9me2 levels (Western blot, FIG. 4)” value in assay [2] is on record as “does not affect H3K9me2 levels”. For the same compound, in assay [3], the “H3K9me0 level, change from control (mass spectrometry, FIG. 7)” value is listed as “H3K9me0 level increases” and the “H3K9me2 level, change from control (mass spectrometry, FIG. 7)” value is recorded as “H3K9me2 level reduction”. Further, in assay [4], the “H3K9me2 level (Western blot, FIG. 5 right panel)” value is reported as “the reduction of H3K9me2 level is attenuated”. Also, the “H3K9me2 level (Western blot, FIG. 5 left panel)” value in assay [5] is “able to reduce the H3K9me2 level in a dose-dependent manner”.
